Test results as given in ChEMBL document CHEMBL4184317, “Discovery of Tetrahydroquinoxalines as Bromodomain and Extra-Terminal Domain (BET) Inhibitors with Selectivity for the Second Bromodomain” (J Med Chem, 2018).

Columns and labels:
[1] = test system: Blood; experiment: Antiinflammatory activity in human whole blood assessed as inhibition of LPS-induced MCP1 release preincubated for 30 mins followed by LPS challenge measured after 24 hrs by immunoassay; format: functional, tissue-based
[2] = target: Bromodomain-containing protein 2 (Homo sapiens, UniProt P25440); experiment: Binding affinity to human partial length DNA-tagged BRD2 isoform 1 BD1 expressed in bacterial by BROMOscan method
[3] = target: Bromodomain-containing protein 9 (Homo sapiens, UniProt Q9H8M2); experiment: Binding affinity to human partial length DNA-tagged BRD9 isoform 1 expressed in bacteria by BROMOscan method
[4] = target: Histone acetyltransferase p300 (Homo sapiens, UniProt Q09472); experiment: Binding affinity to human partial length DNA-tagged EP300 expressed in bacteria by BROMOscan method
[5] = target: Bromodomain-containing protein 3 (Homo sapiens, UniProt Q15059); experiment: Selectivity ratio of Kd for human partial length DNA-tagged BRD3 BD1 to Kd for human partial length DNA-tagged BRD3 BD2
Bromodomain-containing protein 3, sequence (Q15059 2-726 limits assumed): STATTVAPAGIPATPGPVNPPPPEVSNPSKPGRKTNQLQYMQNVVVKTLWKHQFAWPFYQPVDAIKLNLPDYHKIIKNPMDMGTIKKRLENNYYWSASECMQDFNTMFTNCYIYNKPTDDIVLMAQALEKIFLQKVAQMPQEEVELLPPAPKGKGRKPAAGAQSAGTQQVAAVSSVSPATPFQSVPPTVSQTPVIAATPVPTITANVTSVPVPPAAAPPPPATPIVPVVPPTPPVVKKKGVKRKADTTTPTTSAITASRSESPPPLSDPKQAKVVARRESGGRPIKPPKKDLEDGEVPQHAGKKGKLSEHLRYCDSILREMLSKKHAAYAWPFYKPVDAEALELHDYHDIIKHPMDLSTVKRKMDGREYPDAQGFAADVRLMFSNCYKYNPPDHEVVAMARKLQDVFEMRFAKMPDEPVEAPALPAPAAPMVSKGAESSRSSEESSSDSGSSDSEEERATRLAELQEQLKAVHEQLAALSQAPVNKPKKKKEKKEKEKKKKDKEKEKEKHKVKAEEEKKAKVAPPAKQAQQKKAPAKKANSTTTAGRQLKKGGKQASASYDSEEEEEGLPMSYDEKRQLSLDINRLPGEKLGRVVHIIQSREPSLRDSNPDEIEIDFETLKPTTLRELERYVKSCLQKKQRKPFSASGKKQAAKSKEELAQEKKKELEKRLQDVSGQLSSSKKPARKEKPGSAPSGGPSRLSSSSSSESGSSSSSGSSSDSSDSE

Bromodomain-containing protein 9, sequence (Q9H8M2 whole entry, canonical isoform): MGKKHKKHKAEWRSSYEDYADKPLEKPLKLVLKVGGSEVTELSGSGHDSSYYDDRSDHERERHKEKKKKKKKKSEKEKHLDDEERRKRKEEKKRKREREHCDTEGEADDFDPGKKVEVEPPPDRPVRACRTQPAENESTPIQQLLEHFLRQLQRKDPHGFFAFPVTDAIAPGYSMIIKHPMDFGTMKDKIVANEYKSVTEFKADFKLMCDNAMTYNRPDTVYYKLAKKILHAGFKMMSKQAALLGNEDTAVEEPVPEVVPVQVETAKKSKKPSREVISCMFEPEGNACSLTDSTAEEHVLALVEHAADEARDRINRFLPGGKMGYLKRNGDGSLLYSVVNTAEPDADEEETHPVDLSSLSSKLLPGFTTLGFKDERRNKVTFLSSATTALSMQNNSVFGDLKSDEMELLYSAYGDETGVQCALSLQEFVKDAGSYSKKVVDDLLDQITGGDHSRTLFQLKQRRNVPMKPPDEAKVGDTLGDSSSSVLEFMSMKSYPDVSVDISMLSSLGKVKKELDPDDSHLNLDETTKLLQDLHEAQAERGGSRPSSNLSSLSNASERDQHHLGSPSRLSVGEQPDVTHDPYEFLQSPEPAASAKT
Bromodomain-containing protein 2, sequence (P25440 whole entry, canonical isoform): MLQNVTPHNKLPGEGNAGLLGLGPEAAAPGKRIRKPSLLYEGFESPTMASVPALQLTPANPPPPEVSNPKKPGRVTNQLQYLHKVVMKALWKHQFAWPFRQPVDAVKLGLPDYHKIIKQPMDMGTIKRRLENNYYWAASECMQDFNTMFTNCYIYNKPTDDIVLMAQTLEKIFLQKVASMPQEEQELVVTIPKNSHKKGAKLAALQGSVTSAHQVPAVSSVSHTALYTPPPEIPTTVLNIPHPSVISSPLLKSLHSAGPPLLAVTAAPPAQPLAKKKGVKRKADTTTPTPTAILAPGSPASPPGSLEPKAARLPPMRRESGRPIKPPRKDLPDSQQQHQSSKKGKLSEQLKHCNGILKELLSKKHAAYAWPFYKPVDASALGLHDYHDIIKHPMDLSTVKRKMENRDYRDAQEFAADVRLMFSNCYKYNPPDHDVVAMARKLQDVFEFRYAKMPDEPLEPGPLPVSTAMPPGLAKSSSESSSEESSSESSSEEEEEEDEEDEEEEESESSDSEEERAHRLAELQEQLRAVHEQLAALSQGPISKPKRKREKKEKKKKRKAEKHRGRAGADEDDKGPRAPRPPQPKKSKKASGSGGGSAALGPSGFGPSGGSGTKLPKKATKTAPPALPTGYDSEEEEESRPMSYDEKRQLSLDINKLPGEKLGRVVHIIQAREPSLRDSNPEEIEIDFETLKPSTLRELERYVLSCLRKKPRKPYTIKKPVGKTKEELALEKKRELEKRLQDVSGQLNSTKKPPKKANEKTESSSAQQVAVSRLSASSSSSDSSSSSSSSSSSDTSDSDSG
Histone acetyltransferase p300, sequence (Q09472 whole entry): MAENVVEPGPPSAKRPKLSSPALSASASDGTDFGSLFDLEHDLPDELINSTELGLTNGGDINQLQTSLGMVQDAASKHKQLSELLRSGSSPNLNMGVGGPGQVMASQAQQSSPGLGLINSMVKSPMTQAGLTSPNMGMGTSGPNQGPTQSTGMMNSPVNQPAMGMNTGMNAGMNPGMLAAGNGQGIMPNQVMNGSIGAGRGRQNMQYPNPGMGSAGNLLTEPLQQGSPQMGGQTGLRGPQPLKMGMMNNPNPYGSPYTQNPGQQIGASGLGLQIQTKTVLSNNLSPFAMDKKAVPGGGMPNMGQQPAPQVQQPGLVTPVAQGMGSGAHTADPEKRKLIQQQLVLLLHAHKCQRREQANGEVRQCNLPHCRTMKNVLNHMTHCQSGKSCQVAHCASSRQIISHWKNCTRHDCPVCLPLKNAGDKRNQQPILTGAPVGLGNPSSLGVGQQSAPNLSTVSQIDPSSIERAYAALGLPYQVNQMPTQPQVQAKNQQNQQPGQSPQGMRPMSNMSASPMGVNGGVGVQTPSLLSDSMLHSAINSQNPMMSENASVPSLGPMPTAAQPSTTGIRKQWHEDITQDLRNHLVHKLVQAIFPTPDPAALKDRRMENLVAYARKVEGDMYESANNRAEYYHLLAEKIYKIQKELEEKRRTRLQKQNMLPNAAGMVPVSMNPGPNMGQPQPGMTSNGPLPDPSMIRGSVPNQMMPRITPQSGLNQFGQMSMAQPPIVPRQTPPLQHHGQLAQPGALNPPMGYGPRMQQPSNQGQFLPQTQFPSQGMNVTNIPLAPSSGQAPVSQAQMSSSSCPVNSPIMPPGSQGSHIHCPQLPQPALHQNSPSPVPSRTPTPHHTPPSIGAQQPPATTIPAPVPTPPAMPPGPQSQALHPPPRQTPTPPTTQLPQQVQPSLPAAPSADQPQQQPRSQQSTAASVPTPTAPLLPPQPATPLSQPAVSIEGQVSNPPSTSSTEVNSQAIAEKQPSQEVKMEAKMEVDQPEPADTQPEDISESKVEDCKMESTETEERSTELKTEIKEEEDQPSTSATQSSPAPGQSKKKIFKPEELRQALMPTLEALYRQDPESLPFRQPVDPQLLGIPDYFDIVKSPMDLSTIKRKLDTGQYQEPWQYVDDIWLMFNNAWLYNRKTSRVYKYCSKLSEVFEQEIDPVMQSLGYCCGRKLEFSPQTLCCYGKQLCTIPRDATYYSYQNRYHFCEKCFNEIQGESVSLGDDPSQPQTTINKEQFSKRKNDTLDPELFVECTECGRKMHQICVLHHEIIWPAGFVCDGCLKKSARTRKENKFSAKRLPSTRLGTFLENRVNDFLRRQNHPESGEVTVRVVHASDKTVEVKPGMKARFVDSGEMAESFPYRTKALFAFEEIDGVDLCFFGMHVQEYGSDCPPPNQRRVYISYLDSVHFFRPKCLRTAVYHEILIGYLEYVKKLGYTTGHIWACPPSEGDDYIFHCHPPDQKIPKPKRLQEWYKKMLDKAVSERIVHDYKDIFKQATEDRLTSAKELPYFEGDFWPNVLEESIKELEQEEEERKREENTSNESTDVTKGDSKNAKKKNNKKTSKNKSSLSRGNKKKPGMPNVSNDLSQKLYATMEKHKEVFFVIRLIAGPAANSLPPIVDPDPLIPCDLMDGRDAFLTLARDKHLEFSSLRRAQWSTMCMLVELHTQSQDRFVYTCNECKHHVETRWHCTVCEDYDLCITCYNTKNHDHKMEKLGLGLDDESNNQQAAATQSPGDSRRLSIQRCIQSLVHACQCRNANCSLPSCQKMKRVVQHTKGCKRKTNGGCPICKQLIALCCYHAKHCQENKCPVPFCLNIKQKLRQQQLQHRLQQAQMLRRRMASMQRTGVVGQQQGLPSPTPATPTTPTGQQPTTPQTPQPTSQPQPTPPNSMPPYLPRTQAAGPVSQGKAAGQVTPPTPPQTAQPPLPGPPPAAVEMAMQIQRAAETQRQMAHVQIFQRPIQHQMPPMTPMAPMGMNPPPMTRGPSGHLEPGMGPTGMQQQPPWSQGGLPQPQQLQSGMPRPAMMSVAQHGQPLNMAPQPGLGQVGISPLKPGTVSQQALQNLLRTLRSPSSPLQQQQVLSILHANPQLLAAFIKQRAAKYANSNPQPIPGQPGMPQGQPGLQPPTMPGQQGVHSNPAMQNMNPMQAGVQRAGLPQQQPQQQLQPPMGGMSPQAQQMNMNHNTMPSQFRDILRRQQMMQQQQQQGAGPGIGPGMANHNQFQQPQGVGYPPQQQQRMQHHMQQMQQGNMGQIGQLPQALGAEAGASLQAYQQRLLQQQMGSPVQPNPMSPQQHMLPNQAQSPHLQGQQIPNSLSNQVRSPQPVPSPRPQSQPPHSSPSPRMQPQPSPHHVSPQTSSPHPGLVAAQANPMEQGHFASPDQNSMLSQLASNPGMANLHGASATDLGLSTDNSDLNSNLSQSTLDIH

CC(=O)N1c2ccc(C3=CCNCC3)cc2N(Cc2ccccc2CO)C[C@@H]1C1CC1
IC50 [1]: 1 µM | Kd [2]: 1.32 µM | Kd [3]: > 30.2 µM | Kd [4]: > 30.2 µM | Selectivity ratio [5]: 47
